Here are results for two compounds from US8383406B2, “Method for stimulating the proliferation of differentiated cells belonging to the chondrogenic lineage” (Maco Parma, priority 2007, dated 2013).

Structures are written as SMILES. Where a SMILES comes first, the peptide text is derived from it.

The subject of one data set is hybridoma cells. The conditions noted are these: added to the culture medium; WO 01/46220; cited from earlier work.
In data set [1] the test system is human osteoarthritic chondrocytes. Briefly: Cell proliferation test, PKH-26 flow cytometry. The conditions noted are these: 20 mM glycylglycine; cultured for 3 days; FIG. 2 curve C vs B. Type of data set: cell-based. As for the experimental part:
(§1) The analyses were carried out using an FACScan cytometer equipped with ProCellQuest software, under the following experimental conditions: cells in suspension in a PBS isotonic buffer at pH 7.4, having an osmolality of 320-330 mOsmol/kg, with the number of cells analysed being 10,000.
Principle—Prior to being cultured, the chondrocytes were irreversibly labelled with a vital fluorescent membrane intercalator derived from arcidine orange, the PKH-26, with a view to following cell proliferation via flow cytometry, which entails a decrease in the overall fluorescence of the cells.
Operating procedure—10^6 chondrocytes in suspension in 1 ml of the “diluent C” of the labelling kit are added to 1 ml of a […] solution of PKH-26 in the same diluent. After 4 min of incubation at ambient temperature, the reaction is stopped by the addition of 2 ml of foetal calf serum and then, after incubating for one minute, 4 ml of complete DMEM medium are added. After centrifuging (5 min, 2000 g at 25° C.), the resulting sediment is washed 3 times with 10 ml of complete DMEM medium. The cells are then cultured for 3 days under the conditions described in example 1.2, detached from the support thereof according to the above-described method, placed back in suspension in a PBS buffer at pH 7.4 and analyzed by flow cytometry in the logarithmic mode FL2.
In general terms: A flow cytometer gives signals particle by particle.

Data set [2] shares this test system. Briefly: Calcein-AM test, viability and cytotoxicity of the cells. Type of data set: cell-based. The conditions noted are these: 20 mM glycylglycine; cultured for 7 days; FIG. 3 curve C vs B. The protocol: as §1
The viability of the chondrocytes and the toxicity of the peptide were studied using the method developed by Bratosin et al (2005) and based on measuring the cellular esterase activity by means of calcein-AM.
Principle—Calcein-AM is a non-fluorescent acetic ester of fluorescein which passively passes through the membranes of the viable cells and is transformed by the cytosolic esterases into fluorescent calcein, which provides an intense green signal at 530 nm and which is retained only by the cells having an intact plasma membrane. […]
Operating procedure—The chondrocytes (4×10^5) in suspension in 200 μl of PBS buffer at pH 7.4 are incubated (45 min at 37° C.) in darkness, in the presence of 5 μM calcein-AM. Next, 0.5 ml of PBS buffer at pH 7.4 is added to the suspension, which is immediately analysed by flow cytometry in the FL1 logarithmic mode (number of cells counted: 10,000).
The intensity of the fluorescence on a logarithmic scale is plotted on the x-axis and the relative number of cells is plotted on the y-axis.

For data set [3] the test system is unchanged. Put plainly: Culturing of chondrocytes with or without glycylglycine, cell counting. Type of data set: cell-based. As for the experimental part:
The articular cartilage was sampled under sterile conditions from an osteoarthritic patient. The chondrocytes were isolated according to the methods of Green (1971) and Kuettner et al (1982), by enzymatic dissociation of the cartilage in Dulbecco's DMEM medium supplemented with a mixture of antibiotics and antimycotics (10 U/ml penicillin, 10 mg/ml streptomycin, 0.025 mg/ml amphotericin B), 2 mM L-glutamine and 10% foetal calf serum. The cartilage was cut up into small fragments and incubated (37° C.; 20 min) in the aforegoing DMEM medium containing 1 mg/ml of sheep testicular hyaluronidase. The fragments were next washed in PBS buffer (Phosphate Saline Buffer) with a pH of 7.4, and then incubated (60 min, at 37° C.) in the same buffer containing 0.25 g/100 mL trypsin. The fragments of cartilage previously washed with the PBS buffer with a pH of 7.4 were finally dissociated via incubation (15 hrs at 37° C.) in the DMEM medium containing 0.2% collagenase of Clostridium histolyticum and 10% foetal calf serum. The cells were collected by centrifugation (15 min, 3000 g), washed 2 times with the complete DMEM medium and cultured under the conditions hereinbelow. The chondrocytes were cultured on uncoated culture plates with polystyrene wells, at 37° C. for 1 to 7 days in a CO2 atmosphere (5%), in the absence or presence of 20 mM of glycylglycine, in a DMEM medium containing 10% foetal calf serum supplemented with a mixture of antibiotics and antimyotics (10 U/ml penicillin, 10 mg/ml streptomycin, 0.025 mg/ml amphotericin B) and 2 mM L-glutamine. With a view to subsequent cytometric analyses, the chondrocytes were detached by incubating for 3 minutes in a pH 7.4 PBS buffer solution of trypsin (0.25 g/100 ml) and EDTA (0.2 g/100 ml) kept at 37° C. After 3 washings with PBS buffer at pH 7.4, and after counting the cells using a Malassez chamber, the chondrocytes were subjected to various flow cytometry analyses described hereinbelow. FIGS. 1A and 1B show this large-scale production of the chondrocytes. […]

The next data set concerns chondrocytes. Briefly: Proliferation rate of the cells, glycylglycine concentration kinetics. To be noted: for Number of cells obtained / Proliferation rate after 3 days: 76,000 cells cultured for three days; for Proliferation rate/culture medium without Gly-Gly: three days. Type of data set: cell-based, human. The protocol: The chondrocytes were cultured on uncoated culture plates with polystyrene wells, at 37° C. for 1 to 7 days in a CO2 atmosphere (5%), in the absence or presence of 20 mM of glycylglycine, in a DMEM medium containing 10% foetal calf serum supplemented with a mixture of antibiotics and antimyotics (10 U/ml penicillin, 10 mg/ml streptomycin, 0.025 mg/ml amphotericin B) and 2 mM L-glutamine. With a view to subsequent cytometric analyses, the chondrocytes were detached by incubating for 3 minutes in a pH 7.4 PBS buffer solution of trypsin (0.25 g/100 ml) and EDTA (0.2 g/100 ml) kept at 37° C. After 3 washings with PBS buffer at pH 7.4, and after counting the cells using a Malassez chamber, the chondrocytes were subjected to various flow cytometry analyses described hereinbelow. The table below compiles the proliferation rates of cells cultured in the absence or presence of various concentrations of glycylglycine. In order to carry out this test, 76,000 cells were cultured for three days under the culture conditions presented below.

Consider `NCC(=O)NCC(=O)O` [glycylglycine] (H-Gly-Gly-OH), for which the “proliferation of hybridoma cells in comparison with non-supplemented culture medium” value in the data set with hybridoma cells is “only very slightly increases”. Besides, the “PKH-26 fluorescence / cell divisions compared with DMEM medium without glycylglycine” value in data set [1] was “the cell divisions were more numerous”. The “toxicity to / viability of the chondrocytes (calcein-AM)” value in data set [2] was “not toxic to the chondrocytes and does not reduce the viability thereof”. For the same compound, the “proliferation rate in comparison with identical culture medium not supplemented with glycylglycine” value in data set [3] (20 mM glycylglycine, DMEM medium, 7 days (FIGS. 1A and 1B), cell counting) was “multiplied by three”. Besides, the “proliferation rate in comparison with non-supplemented culture medium (summary statement)” value in data set [3] (glycylglycine added to the chondrocyte culture medium) was “multiplied by three, and even by seven”. Further, the “dedifferentiation of the chondrocytes into fibroblasts” value in data set [3] (presence of glycylglycine in culture medium) is given as “blocks the dedifferentiation of the chondrocytes into fibroblasts”. For the same compound, the “Number of cells obtained” value in the data set with chondrocytes (20 mM Gly-Gly) is 190,000 cells/ml; in the data set with chondrocytes (50 mM Gly-Gly) it was 124,000 cells/ml; in the data set on chondrocytes (100 mM Gly-Gly) it was 145,000 cells/ml; in the data set with chondrocytes (200 mM Gly-Gly) it was 130,000 cells/ml; in the data set on chondrocytes (500 mM Gly-Gly), 112,000 cells/ml. Besides, the “Proliferation rate after 3 days” value with chondrocytes (20 mM Gly-Gly) amounted to 150%; in the data set on chondrocytes (50 mM Gly-Gly) it was 63%; with chondrocytes (100 mM Gly-Gly) it was 91%; in the data set on chondrocytes (200 mM Gly-Gly), 71%; in the data set with chondrocytes (500 mM Gly-Gly) it was 47%. The “Proliferation rate/culture medium without Gly-Gly” value in the data set with chondrocytes (20 mM Gly-Gly) came to 2.11; with chondrocytes (50 mM Gly-Gly), 1.38; in the data set with chondrocytes (100 mM Gly-Gly), 1.61; in the data set on chondrocytes (200 mM Gly-Gly), 1.44; in the data set with chondrocytes (500 mM Gly-Gly), 1.24.

Take `NCC(=O)O` [glycine monomer, glycine, reference compound]: in the data set with hybridoma cells, the “proliferation of hybridoma cells in comparison with non-supplemented culture medium” value was “only very slightly increases”.
